Results on one molecule are retold here after patent publication US20080153743A1, “METHODS RELATING TO THE TREATMENT OF FIBROSIS” (UNIVERSITY OF WASHINGTON, priority 2005, published 2008).

Test [1] concerns TCF/β-catenin transcription. The test is described as follows: Bat-Gal transgenic mice, bleomycin model, X-Gal/β-galactosidase read out of TCF/β-catenin transcription. It counts as in vivo. The settings on record: 5 mg/Kg/day s.c., intratracheal bleomycin. On the procedure:
Furthermore, utilizing a specific inhibitor of Wnt/β-catenin/CBP driven transcription (ICG-001, 5 mg/Kg/day s.c.) Wnt/β-catenin was inhibited by >95% as judged by β-galactogidase activity. ICG-001 is among the structures described in detail below.
Using this murine model of pulmonary fibrosis in transgenic Bat-al mice, ICG-001 (5 mg/Kg/day) blocked >95% of bleomycin-induced TCF/βcatenin transcription.
These mice have a Beta-Galactosidase transgene driven by a TCF/Catenin driven promoter (i.e. a read out for activated Wnt/catenin signaling). The mice were given intratracheal saline or bleomycin and either treated with ICG-001 (5 mgs/Kg/day subcutaneously) or saline as vehicle control. The mice were sacrificed and the lungs sectioned and stained with X-Gal (blue color) A) intratracheal bleo+saline. B) intracheal bleo+ICG-001 C) saline+saline.
The dose was selected because ICG-001 reduces TCF/βCatenin driven O-Galactosidase expression >95% at 5 mgs/Kg/day.

Test [2] deals with bleomycin induced pulmonary fibrosis. As to the kind of experiment: Bleomycin induced pulmonary fibrosis in C57/B16 mice, trichrome histology, body weight, survival. Type of test: in vivo. How it is done:
Murine models of bleomycin induced fibrosis have been developed in order to study fibrotic disease progression.
There is an absence of airway epithelium in lower left compared to upper left (see arrow heads) and extensive collagen deposition (lower left). On the sixth day, either saline (upper right) or ICG-001 (5 mgs/Kg/day) was administered for 10 days after which the mice were sacrificed and sectioned. Of interest is the upper right (saline treatment) showing lack of normal airway epithelialization, extensive collagen deposition and intra-airway hypercellularity (fibroblasts and inflammatory influx).

The subject of a further test is S100A4. The test is described as follows: RT-PCR for S100A4 in bleomycin treated mice. Type of test: in vivo. The conditions noted are these: 5 mgs/Kg/day s.c., versus saline/saline mice.
A further test relates to collagen1A2. The test is described as follows: RT-PCR for collagen1A2 in bleomycin treated mice. Type of test: in vivo. The conditions noted are these: 5 mgs/Kg/day s.c., versus saline/saline mice.
A further test relates to S100A4 (FSP-1). The test is described as follows: Western blot for S100A4 in IPF patient fibroblasts. The settings on record: RPMI1640+10% FBS, 2 days, also true at the mRNA level. It counts as cell-based, human. How it is done: (§1) Western blots for S100A4 (also know as FSP-1 or fibroblast specific protein-1) and E-Cadherin were performed on whole cell lysates.
For a further test, the system named is E-Cadherin. As to the kind of experiment: Western blot for E-Cadherin in IPF patient fibroblasts. Type of test: cell-based, human. The conditions noted are these: RPMI1640+10% FBS, 2 days, also true at the mRNA level. On the procedure: as §1
The target in test [3] is β-catenin/CBP interaction (Homo sapiens, UniProt Q92793). The conditions noted are these: cited from earlier work.
Sequence of β-catenin/CBP interaction (Q92793 whole entry): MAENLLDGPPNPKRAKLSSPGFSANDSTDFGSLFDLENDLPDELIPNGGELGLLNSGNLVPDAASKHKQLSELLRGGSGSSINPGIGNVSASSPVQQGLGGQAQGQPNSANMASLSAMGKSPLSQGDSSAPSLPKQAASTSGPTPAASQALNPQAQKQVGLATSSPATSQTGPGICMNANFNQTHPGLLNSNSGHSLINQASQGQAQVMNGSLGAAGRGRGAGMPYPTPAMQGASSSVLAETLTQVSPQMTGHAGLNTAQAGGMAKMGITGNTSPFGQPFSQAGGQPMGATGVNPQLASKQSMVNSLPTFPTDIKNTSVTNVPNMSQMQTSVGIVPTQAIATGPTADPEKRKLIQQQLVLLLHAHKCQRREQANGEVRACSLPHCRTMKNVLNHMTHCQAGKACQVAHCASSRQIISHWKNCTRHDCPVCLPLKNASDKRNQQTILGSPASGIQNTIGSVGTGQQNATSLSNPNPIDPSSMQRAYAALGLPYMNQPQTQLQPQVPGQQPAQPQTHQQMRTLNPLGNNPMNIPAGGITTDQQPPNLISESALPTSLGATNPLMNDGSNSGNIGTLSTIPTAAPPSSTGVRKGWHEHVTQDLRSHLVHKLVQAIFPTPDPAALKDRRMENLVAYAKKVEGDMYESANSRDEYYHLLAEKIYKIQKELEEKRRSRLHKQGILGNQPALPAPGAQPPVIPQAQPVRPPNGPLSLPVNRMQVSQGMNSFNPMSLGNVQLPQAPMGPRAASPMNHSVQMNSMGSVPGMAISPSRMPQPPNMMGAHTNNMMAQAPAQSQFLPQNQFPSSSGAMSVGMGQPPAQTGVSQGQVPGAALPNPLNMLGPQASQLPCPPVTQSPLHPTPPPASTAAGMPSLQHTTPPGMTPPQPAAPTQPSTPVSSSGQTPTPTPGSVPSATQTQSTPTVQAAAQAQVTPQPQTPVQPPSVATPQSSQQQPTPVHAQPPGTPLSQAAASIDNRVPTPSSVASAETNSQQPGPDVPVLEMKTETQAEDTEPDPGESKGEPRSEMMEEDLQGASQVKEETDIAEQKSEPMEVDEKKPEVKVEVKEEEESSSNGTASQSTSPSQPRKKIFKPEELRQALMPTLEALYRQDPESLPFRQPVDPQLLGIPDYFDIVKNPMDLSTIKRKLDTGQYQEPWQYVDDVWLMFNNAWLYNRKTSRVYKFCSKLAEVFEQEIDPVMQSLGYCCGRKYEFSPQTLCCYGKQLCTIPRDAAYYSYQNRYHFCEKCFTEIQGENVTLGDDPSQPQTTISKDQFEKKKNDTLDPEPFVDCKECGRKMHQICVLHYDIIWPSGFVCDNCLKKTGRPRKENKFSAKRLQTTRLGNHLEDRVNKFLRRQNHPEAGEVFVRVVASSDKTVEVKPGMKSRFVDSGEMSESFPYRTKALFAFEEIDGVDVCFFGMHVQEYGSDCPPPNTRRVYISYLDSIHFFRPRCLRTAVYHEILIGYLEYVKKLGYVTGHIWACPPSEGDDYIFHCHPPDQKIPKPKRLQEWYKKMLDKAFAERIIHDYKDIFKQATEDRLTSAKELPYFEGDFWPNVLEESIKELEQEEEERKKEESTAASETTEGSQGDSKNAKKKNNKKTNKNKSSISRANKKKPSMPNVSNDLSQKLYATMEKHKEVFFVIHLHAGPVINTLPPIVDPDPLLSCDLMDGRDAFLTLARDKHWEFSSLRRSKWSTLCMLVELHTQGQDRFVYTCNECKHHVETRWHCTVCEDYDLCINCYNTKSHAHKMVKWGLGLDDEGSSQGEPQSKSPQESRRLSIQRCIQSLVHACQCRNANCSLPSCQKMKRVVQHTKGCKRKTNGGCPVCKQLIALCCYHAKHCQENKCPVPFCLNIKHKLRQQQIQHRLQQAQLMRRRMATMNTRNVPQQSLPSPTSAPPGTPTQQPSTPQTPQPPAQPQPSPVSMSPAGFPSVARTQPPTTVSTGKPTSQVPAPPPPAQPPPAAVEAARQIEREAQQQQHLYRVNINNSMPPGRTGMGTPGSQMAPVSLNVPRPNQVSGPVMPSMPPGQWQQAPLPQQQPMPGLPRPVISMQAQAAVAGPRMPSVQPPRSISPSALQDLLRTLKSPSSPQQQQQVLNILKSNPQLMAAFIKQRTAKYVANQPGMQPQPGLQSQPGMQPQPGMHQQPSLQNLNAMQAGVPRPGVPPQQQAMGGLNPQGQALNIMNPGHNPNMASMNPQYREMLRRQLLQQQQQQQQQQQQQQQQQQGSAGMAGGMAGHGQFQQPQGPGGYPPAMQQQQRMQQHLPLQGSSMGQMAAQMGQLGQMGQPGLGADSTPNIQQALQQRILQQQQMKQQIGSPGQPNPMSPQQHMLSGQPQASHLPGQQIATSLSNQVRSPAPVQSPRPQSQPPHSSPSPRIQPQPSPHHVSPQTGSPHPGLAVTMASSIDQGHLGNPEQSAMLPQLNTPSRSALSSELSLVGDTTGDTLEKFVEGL
In test [4] the target is β-catenin/p300 interaction (Homo sapiens, UniProt Q09472). The conditions noted are these: cited from earlier work.
Sequence of β-catenin/p300 interaction (Q09472 whole entry): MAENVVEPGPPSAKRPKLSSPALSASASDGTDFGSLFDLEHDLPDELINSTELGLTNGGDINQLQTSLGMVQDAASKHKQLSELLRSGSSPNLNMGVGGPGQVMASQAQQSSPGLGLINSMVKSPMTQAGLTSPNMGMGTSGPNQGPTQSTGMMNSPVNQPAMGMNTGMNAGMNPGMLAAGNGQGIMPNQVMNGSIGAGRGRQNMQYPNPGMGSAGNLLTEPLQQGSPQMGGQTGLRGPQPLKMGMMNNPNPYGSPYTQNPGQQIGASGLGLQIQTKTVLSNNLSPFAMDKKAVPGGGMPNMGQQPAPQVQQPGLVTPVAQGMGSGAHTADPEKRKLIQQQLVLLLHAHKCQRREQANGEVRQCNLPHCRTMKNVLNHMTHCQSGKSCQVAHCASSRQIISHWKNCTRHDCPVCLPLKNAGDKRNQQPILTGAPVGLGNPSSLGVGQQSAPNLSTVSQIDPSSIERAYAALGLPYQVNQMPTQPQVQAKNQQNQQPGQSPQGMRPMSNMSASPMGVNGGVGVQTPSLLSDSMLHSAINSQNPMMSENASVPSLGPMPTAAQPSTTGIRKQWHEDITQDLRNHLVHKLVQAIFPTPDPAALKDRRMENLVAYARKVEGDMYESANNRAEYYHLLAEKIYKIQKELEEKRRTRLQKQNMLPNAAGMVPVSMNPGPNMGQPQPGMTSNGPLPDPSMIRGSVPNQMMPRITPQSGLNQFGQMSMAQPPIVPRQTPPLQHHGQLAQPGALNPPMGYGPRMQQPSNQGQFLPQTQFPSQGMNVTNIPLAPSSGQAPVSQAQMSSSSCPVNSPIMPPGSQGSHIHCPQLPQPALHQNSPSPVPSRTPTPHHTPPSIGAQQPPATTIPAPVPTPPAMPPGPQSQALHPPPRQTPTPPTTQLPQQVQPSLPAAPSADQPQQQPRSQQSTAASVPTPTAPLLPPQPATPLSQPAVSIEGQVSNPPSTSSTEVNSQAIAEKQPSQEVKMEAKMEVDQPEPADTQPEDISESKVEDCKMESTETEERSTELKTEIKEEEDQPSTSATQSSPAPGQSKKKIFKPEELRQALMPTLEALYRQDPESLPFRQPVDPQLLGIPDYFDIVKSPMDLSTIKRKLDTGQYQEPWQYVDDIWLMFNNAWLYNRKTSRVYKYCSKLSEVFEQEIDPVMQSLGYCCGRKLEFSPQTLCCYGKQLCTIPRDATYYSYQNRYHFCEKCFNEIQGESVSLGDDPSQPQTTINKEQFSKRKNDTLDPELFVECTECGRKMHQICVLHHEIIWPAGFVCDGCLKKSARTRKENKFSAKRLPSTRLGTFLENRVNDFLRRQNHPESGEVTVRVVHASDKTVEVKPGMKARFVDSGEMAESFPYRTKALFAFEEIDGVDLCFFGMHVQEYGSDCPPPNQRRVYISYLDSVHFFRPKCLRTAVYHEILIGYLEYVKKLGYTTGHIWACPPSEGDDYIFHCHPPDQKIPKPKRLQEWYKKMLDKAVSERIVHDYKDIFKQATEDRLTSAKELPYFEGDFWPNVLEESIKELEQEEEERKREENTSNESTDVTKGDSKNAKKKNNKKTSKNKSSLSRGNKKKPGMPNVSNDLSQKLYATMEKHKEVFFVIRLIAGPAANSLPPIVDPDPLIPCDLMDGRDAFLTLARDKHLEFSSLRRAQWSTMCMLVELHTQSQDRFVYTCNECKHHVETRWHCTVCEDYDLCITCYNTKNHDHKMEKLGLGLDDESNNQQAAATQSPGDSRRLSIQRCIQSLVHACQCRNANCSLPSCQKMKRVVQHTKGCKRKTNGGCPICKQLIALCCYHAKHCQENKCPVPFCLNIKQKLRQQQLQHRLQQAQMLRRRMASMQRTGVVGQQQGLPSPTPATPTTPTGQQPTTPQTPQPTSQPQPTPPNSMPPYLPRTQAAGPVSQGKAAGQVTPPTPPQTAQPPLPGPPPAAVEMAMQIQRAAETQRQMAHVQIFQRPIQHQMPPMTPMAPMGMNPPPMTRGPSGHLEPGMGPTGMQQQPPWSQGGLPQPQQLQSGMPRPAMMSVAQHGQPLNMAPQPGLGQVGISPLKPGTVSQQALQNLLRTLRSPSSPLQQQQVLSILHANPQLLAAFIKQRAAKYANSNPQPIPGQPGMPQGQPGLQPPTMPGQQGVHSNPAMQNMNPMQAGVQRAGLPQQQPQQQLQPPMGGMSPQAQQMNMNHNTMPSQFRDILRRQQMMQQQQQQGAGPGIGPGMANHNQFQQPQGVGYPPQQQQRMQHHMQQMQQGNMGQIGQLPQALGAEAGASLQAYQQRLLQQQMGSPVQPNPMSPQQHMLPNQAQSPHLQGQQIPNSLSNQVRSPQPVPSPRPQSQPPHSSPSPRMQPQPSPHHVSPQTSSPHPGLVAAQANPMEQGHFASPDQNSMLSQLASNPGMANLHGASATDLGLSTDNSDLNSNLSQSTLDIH
[5] abbreviates: 5 mgs/Kg/day for 10 days from the sixth day after intratracheal bleomycin.

As for `O=C1[C@H](Cc2ccc(O)cc2)N2C(=O)CCN(C(=O)NCc3ccccc3)[C@H]2CN1Cc1cccc2ccccc12` [ICG-001], the “inhibition of bleomycin-induced TCF/β-catenin transcription (β-galactosidase activity)” value in test [1] was above 95%. In test [2] (5 mg/Kg/day, murine bleomycin model), the “disease progression, as judged by reduced mortality, histopathology and endogenous gene expression” value was “not only halts but reverses disease progression”. Further, in test [2] (setting [5]), the “airway histology (lung sections)” value is listed as “the airway looks essentially normal”, the body weight entry is reported as “regained normal body weight” and the “collagen levels (trichrome stain)” value is “normal collagen levels”. The survival result in test [2] (5 mgs/Kg/day for 10 days from the sixth day after intratracheal bleomycin, untreated controls did not survive) is “survived”. The “S100A4 message (RT-PCR)” value in the test with S100A4 is reported as “reduced essentially to negative control”. In the test on collagen1A2, the “collagen1A2 message (RT-PCR)” value is listed as “reduced essentially to negative control”. Further, in the test with S100A4 (FSP-1), the “S100A4 expression (Western blot, whole cell lysates)” value is “decreased S100A4 expression”. Moreover, in the test on E-Cadherin, the “E-cadherin expression (Western blot, whole cell lysates)” value is given as “increased E-cadherin expression”. Further, in test [3], the “effect on β-catenin/CBP interaction” value is given as “selectively blocks the β-catenin/CBP interaction”. Besides, in test [4], the “effect on β-catenin/p300 interaction” value is reported as “without interfering”.
